Experimental data as given in publication PMC7191384, “Multimodal α-Glucosidase and α-Amylase Inhibition and Antioxidant Effect of the Aqueous and Methanol Extracts from the Trunk Bark of Ceiba pentandra” (BioMed Research International, 2020).

Tests used:
[1] = tested on: BSA oxidation induced by H2O2; assay: H2O2-induced protein oxidation assay (BSA thiol groups); design: species or system bovine
Procedure: (§1) The effect of plant extracts against protein oxidation was evaluated according to the method of Simplicio et al. with some modifications. Zero point five milliliter aliquots of BSA (30 mg/ml) prepared in phosphate buffer saline (50 mM, pH 7.4) were incubated with 0.5 ml of extracts or gallic acid. Fifteen minutes later, 0.5 ml of H2O2 (20 mM) or AAPH (2′,2′-azobis (2-methylpropionamidine) dihydrochloride) solution (50 mM) in another set of experiment, was added to the reaction medium and incubated at 37°C for 30 minutes and 1 hour, respectively. Proteins were precipitated with ammonium sulfate (70%) followed by vigorous shaking and centrifugation at 3000 rpm. The pellet obtained was resuspended in 1.5 ml of PBS, and 0.2 ml of Ellman's reagent was introduced. The level of thiol groups was measured 10 minutes later at 412 nm.

[2] = tested on: BSA oxidation induced by AAPH; assay: AAPH-induced protein oxidation assay (BSA thiol groups); design: species or system bovine
Procedure: as §1

[3] = Superoxide anion scavenging test (PMS-NADH/NBT)
Procedure: Superoxide anions were generated in a phenazine methosulfate- (PMS-) NADH system. The reaction mixture was made of 0.5 ml test solution, 0.95 ml 0.1 M phosphate buffer (pH 7.4), 0.5 ml […] in phosphate buffer (pH 7.4). Extracts were used at concentrations of 1, 3, 10, 30, 100, and 300 μg/ml. Gallic acid was tested at the same concentrations and used as a reference drug. Reduction of nitroblue tetrazolium was monitored at 560 nm on a Helios Epsilon Spectrophotometer (Thermo Fisher Scientific). The test was carried out in triplicate. The percent inhibition was calculated as follows: […]

[4] = molecular target: T1, α-glucosidase (Saccharomyces cerevisiae, UniProt P53341); assay: α-Glucosidase inhibitory test (pNPG); assay type: biochemical; details: according to the efficacy index
T1 construct: purchased Sigma-Aldrich Chemical Co. (Taufkirchen, Germany)
T1 sequence (P53341 whole entry): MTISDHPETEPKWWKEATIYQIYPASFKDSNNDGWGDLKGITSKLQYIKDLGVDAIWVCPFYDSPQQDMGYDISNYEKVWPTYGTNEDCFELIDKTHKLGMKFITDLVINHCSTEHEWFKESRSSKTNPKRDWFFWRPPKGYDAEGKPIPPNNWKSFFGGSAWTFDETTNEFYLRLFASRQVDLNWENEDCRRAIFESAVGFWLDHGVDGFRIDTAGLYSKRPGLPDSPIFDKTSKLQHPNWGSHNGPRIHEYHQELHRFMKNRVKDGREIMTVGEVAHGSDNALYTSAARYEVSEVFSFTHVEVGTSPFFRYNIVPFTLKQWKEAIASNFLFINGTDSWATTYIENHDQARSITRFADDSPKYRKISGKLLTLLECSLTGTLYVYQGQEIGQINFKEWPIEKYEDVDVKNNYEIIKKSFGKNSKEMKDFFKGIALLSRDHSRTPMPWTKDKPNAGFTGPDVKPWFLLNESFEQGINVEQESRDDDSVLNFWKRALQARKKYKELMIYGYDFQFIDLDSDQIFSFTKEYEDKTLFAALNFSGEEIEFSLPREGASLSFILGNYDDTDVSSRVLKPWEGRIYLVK
Procedure: The ability of C. pentandra extracts to inhibit the activity of α-glucosidase was assessed according to Kim et al.'s protocol. Shortly, α-glucosidase (1 U/ml) from Saccharomyces cerevisiae was preincubated with 250 μl extracts for 10 minutes. P-nitrophenyl glucopyranoside substrate solution (pNPG, 3 mM) prepared in 20 mM phosphate buffer (pH 6.9) containing 2 mg/ml BSA was added to start the reaction. The reaction mixture was incubated at 37°C for 20 minutes and stopped with 1 ml of Na2CO3 (1 M). α-Glucosidase activity was determined by measuring paranitrophenol released from pNPG at 405 nm. The percent inhibition was calculated as follows: (3) %inhibition=OD control−OD sample/OD control×100.

[5] = Hydrogen peroxide scavenging activity
Procedure: A method previously described by Ruch et al. was used to assess the ability of plant extracts to decompose hydrogen peroxide (H2O2). Briefly, a 40 mM solution of H2O2 prepared in phosphate buffer (pH 7.4) was mixed with graded concentrations (1-300 μg/ml) of extracts or ascorbic acid. After 10 min of incubation, optical densities were read at 230 nm against a blank solution made up of phosphate buffer without H2O2. The percentage of H2O2 scavenging activity was calculated as in the previous test.

With O=C(O)c1cc(O)c(O)c(O)c1 [Gallic acid, gallic acid] the “H2O2 protein oxidation EI (efficiency index)” value [1] was 1.74, the “H2O2 protein oxidation IC50” value ([1]; BSA, H2O2 20 mM, 37°C, 30 minutes) was 29.9 µg/mL and the “AAPH protein oxidation EI (efficiency index)” value [2] was 0.64. The “AAPH protein oxidation IC50” value ([2]; BSA, AAPH 50 mM, 37°C, 1 hour) was 90.17 µg/mL, the “Superoxide anion EI (efficiency index, maximal activity/IC50)” value [3] was 1.43 and the “Superoxide anion IC50” value ([3]; concentrations 1-300 μg/ml) was 55.66 µg/mL.
In the case of C[C@H]1O[C@H](O[C@H]2[C@H](O)[C@@H](O)[C@@H](O[C@H]3[C@H](O)[C@@H](O)C(O)O[C@@H]3CO)O[C@@H]2CO)[C@H](O)[C@@H](O)[C@@H]1N[C@H]1C=C(CO)[C@@H](O)[C@H](O)[C@H]1O (stereo partly shown) [Acarbose, acarbose], the “α-Glucosidase: inhibitory effect, times greater than that of the methanol extract” value [4] is reported as 10 times and the “α-Glucosidase: inhibitory effect, times the magnitude of the aqueous extract” value [4] is reported as “more than 15 times”.
With O=C1O[C@H]([C@@H](O)CO)C(O)=C1O [Ascorbic acid, ascorbic acid] the “Hydrogen peroxide EI (efficiency index)” value [5] was 4.77 and the “Hydrogen peroxide IC50” value ([5]; 1-300 μg/ml, 10 min incubation) was 13.84 µg/mL.
